Test results: patent EP0150892A2, “Substituted alkylidene imidazoles” (G.D. Searle & Co., priority 1984, dated 1985)

Molecular target: T1, thromboxane synthetase (Cavia porcellus, UniProt H0UT36)
T1 construct: from tissue; host or cells: citrated whole blood (platelets) of albino male Dunkin-Hartley guinea pigs (printed 'Dunkin-Bartley') dosed orally
T1 sequence (H0UT36 1-533): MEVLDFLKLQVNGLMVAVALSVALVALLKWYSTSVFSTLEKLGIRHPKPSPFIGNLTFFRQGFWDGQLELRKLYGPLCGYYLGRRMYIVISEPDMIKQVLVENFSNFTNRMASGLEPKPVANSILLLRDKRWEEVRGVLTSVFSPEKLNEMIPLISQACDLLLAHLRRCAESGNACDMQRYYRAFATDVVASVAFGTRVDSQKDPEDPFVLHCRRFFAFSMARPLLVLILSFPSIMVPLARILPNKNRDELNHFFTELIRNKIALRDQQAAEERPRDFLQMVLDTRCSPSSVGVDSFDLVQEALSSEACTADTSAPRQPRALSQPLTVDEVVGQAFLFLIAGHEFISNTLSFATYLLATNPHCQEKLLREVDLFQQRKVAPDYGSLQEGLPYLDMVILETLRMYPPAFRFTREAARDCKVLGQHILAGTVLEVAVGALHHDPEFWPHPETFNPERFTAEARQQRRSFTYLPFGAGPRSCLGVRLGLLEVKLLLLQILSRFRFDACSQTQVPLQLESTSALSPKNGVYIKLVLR
Experiment: Whole blood aggregation and thromboxane formation in vivo: guinea pig (plasma TXB2 by radioimmunoassay after oral dosing)
Settings: plasma TXB2 in collagen-stimulated citrated whole blood of guinea pigs dosed orally, versus vehicle controls; normalized to platelet count; dose not given

## CCOC(=O)c1ccc(/C=C(/COCc2ccc(OC)cc2)Cn2ccnc2)c(OC)c1 (single isomer, unassigned) [11 (E-isomer), ethyl 4-[3-(1H-imidazol-1-yl)-2-[[(4-methoxyphenyl]methoxy]methyl]-lE-propenyl]-3-methoxybenzoate]
  % INHIBITION: -36.0%
